Test results as given in US20050020550A1, “Selective testicular 11beta-HSD inhibitors and methods of use thereof” (priority 2003, published 2005).

What was measured:
[1] = target: T1, 11β-HSD1 Reductase (Rattus norvegicus, UniProt P16232); assay: Inhibition of 11β-HSD1 reductase (Table 1); format: cell-based
T1 construct: an enzyme present in testicular Leydig cells; endogenous in cells; host or cells: freshly prepared rat Leydig cells

[2] = target: T2, 11β-HSD1 Dehydrogenase (Rattus norvegicus, UniProt P16232); assay: Inhibition of 11β-HSD1 dehydrogenase (Table 1); format: cell-based
T2 construct: an enzyme present in testicular Leydig cells; endogenous in cells; host or cells: freshly prepared rat Leydig cells

[3] = target: T3, 11β-HSD2 Dehydrogenase (Homo sapiens, UniProt P80365); assay: Inhibition of 11β-HSD2 dehydrogenase (Table 1); format: biochemical
T3 sequence (P80365 1-405): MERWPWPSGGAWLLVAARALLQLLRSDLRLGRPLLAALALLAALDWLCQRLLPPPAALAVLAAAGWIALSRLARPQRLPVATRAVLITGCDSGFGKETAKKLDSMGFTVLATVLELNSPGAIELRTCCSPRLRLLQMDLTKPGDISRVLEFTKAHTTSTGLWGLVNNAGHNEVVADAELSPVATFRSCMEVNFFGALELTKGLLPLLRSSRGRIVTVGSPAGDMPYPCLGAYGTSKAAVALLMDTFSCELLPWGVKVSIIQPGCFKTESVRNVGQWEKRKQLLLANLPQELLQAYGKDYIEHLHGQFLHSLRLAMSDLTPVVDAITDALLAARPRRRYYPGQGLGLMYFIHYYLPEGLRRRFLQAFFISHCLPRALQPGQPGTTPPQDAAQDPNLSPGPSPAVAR

T2 sequence (P16232 whole entry): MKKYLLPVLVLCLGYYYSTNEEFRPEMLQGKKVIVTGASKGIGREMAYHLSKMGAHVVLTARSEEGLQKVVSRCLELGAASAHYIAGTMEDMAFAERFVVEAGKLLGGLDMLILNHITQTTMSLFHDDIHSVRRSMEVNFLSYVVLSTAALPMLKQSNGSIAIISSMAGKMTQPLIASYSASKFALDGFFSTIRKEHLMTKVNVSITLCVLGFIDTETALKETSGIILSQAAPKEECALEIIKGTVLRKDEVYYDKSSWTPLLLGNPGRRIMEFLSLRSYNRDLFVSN
T1 sequence (P16232 whole entry): as above

| SMILES | 11β-HSD1 Reductase (inhibition) [1] | 11β-HSD1 Dehydrogenase (inhibition) [2] | 11β-HSD2 Dehydrogenase (inhibition) [3] |
| --- | --- | --- | --- |
| C[C@]12CCC(=O)C=C1CC[C@@H]1[C@H]2C(=O)C[C@]2(C)C(=O)CC[C@H]12 (stereo in doubt) [11-Keto-androstenedione] | Selective Inhibitor | No Inhibition | No Inhibition |
| C[C@]12CC[C@@H]3[C@@H]([C@@H](O)C[C@]4(C=O)[C@@H](C(=O)CO)CC[C@H]34)[C@@]1(C)CC[C@H](O)C2 [3α,5α-reduced aldosterone] | No Inhibition | Moderate Inhibitor | Potent Inhibitor |
| C[C@]12CC[C@H](O)C[C@@H]1CC[C@@H]1[C@@H]2C(=O)C[C@]2(C)C(=O)CC[C@@H]12 [3α,5α-reduced-11-keto-androstenedione] | Selective Inhibitor | No Inhibition | – |
| CC(=O)[C@H]1CC[C@@H]2[C@@H]3CC[C@@H]4C[C@@H](O)CC[C@]4(C)[C@@H]3C(=O)C[C@]12C [3α,5α-reduced-11-keto-progesterone] | Selective Inhibitor | No Inhibition | Potent Inhibitor |
| C[C@]12CC[C@H](O)C[C@@H]1CC[C@H]1[C@@H]3CC[C@H](O)[C@@]3(C)CC(=O)[C@@H]12 [3α,5α-reduced-11-keto-testosterone] | Selective Inhibitor | No Inhibition | – |
| C[C@]12CC[C@H](O)C[C@H]1CC[C@@H]1[C@H]2[C@@H](O)C[C@]2(C)C(=O)CC[C@H]12 [3α,5α-reduced- 11β-OH—androstenedione] | No Inhibition | Moderate Inhibitor | Potent Inhibitor (Non-Selective) |
| CC(=O)[C@H]1CC[C@@H]2[C@@H]3CC[C@@H]4C[C@@H](O)CC[C@]4(C)[C@@H]3[C@@H](O)C[C@]12C [3α,5α-reduced- 11β-OH—progesterone] | No Inhibition | Potent Inhibitor (Non-Selective) | Potent Inhibitor (Non-Selective) |
| C[C@]12CC[C@H](O)C[C@H]1CC[C@@H]1[C@H]2[C@@H](O)C[C@@]2(C)[C@@H]1CC[C@@H]2O [3α,5α-reduced- 11β-OH—testosterone] | No Inhibition | Potent Inhibitor (Non-Selective) | Potent Inhibitor (Non-Selective) |
| C[C@]12CC[C@H](O)C[C@@H]1CC[C@@H]1[C@@H]2[C@@H](O)C[C@]2(C)[C@@H](C(=O)CO)CC[C@@H]12 [3α,5α-reduced- corticosterone] | No Inhibition | Potent Inhibitor | Potent Inhibitor |
| C[C@]12CC[C@H](O)C[C@@H]1CC[C@H]1[C@@H]3CC[C@H](C(=O)CO)[C@@]3(C)CC(=O)[C@@H]12 [3α,5α-tetrahydro-11-dehydro-corticosterone] | Potent Inhibitor | No Inhibition | Potent Inhibitor |
| CC(=O)[C@H]1CC[C@@H]2[C@@H]3CC[C@@H]4C[C@@H](O)CC[C@]4(C)[C@@H]3[C@@H](O)C[C@]12C [3α,5β-reduced- 11β-OH—progesterone] | No Inhibition | Moderate Inhibitor | No Inhibition |
| CC(=O)[C@H]1CC[C@@H]2[C@@H]3CCC4=CC(=O)CC[C@]4(C)[C@@H]3[C@@H](O)C[C@]12C [11β-OH—progesterone] | No Inhibition | Potent Inhibitor (Non-Selective) | – |
